From patent US20140309244A1, “NOVEL MICROBIOCIDES” (SYNGENTA PARTICIPATIONS AG, priority 2010, published 2014)

Key:
[1] = system: Blumeria graminis f. sp. tritici (Erysiphe graminis f. sp. tritici); assay: Blumeria graminis f. sp. tritici (Erysiphe graminis f. sp. tritici) / wheat / leaf disc preventative (powdery mildew on wheat); assay type: in vivo; conditions: foliar, wheat cv. Kanzler leaf segments, inoculated 1 day after application, assessed 6-8 days after application, read-out: control of Blumeria graminis (percent disease control compared to untreated)
[2] = system: Phaeosphaeria nodorum (Septoria nodorum); assay: Phaeosphaeria nodorum (Septoria nodorum) / wheat / leaf disc preventative (glume blotch); assay type: in vivo; conditions: Parastagonospora nodorum, foliar, wheat cv Kanzler leaf segments, inoculated 2 days after application, assessed 5-7 days after application, read-out: control of Phaeosphaeria nodorum (percent disease control compared to untreated)
[3] = system: Mycosphaerella arachidis (Cercospora arachidicola); assay: Mycosphaerella arachidis (Cercospora arachidicola) / liquid culture (early leaf spot); assay type: cell-based; conditions: PDB potato dextrose broth, 96-well plate, 24° C., 4-5 days after application, read-out: control of Mycosphaerella arachidis (inhibition of growth, photometric)
[4] = system: Puccinia recondita f. sp. tritici; assay: Puccinia recondita f. sp. tritici / wheat / leaf disc curative (brown rust); assay type: in vivo; conditions: foliar, wheat cv Kanzler leaf segments, applied 1 day after inoculation, assessed 6-8 days after application, read-out: control of Puccinia recondita f. sp. tritici (percent disease control compared to untreated)
Experimental: Puccinia recondita f. sp. tritici/Wheat/Leaf Disc Curative (Brown Rust): Wheat leaf segments cv Kanzler were placed on agar in 24-well plates. The leaf segments were inoculated with a spore suspension of the fungus. The plates were stored in darkness at 19° C. and 75% relative humidity. The formulated test compound diluted in water was applied at an application rate of 200 ppm 1 day after inoculation.

[5] = system: Mycosphaerella graminicola (Septoria tritici); assay: Mycosphaerella graminicola (Septoria tritici) / liquid culture (Septoria blotch); assay type: cell-based; conditions: Zymoseptoria tritici, PDB potato dextrose broth, 96-well plate, 24° C., 4-5 days after application, read-out: control of Mycosphaerella graminicola (inhibition of growth, photometric)
[6] = system: Pyrenophora teres; assay: Pyrenophora teres / barley / leaf disc preventative (net blotch); assay type: in vivo; conditions: foliar, barley cv Hasso leaf segments, inoculated two days after application, assessed 5-7 days after application, read-out: control of Pyrenophora teres (disease control compared to untreated)
[7] = system: Thanatephorus cucumeris (Rhizoctonia solani); assay: Thanatephorus cucumeris (Rhizoctonia solani) / liquid culture (foot rot, damping-off); assay type: cell-based; conditions: liquid culture of mycelia fragments, PDB potato dextrose broth, 96-well plate, 24° C., 3-4 days after application, read-out: control of Thanatephorus cucumeris (inhibition of growth, photometric)
Experimental: Thanatephorus cucumeris (Rhizoctonia solani)/Liquid Culture (Foot Rot, Damping-Off): Mycelia fragments of a newly grown liquid culture of the fungus are directly mixed into nutrient broth (PDB potato dextrose broth). After placing a DMSO solution of the test compounds into a 96-well microtiter plate at an application rate of 200 ppm, the nutrient broth containing the fungal material was added. The test plates were incubated at 24° C. and the inhibition of growth was determined photometrically 3-4 days after application.

[8] = system: Botryotinia fuckeliana (Botrytis cinerea); assay: Botryotinia fuckeliana (Botrytis cinerea) / liquid culture (gray mould); assay type: cell-based; conditions: Vogels broth, 96-well plate, 24° C., 3-4 days after application, read-out: control of Botryotinia fuckeliana (inhibition of growth, photometric)
[9] = system: Glomerella lagenarium (Colletotrichum lagenarium); assay: Glomerella lagenarium (Colletotrichum lagenarium) / liquid culture (anthracnose); assay type: cell-based; conditions: Colletotrichum orbiculare, PDB potato dextrose broth, 96-well plate, 24° C., 3-4 days after application, read-out: control of Glomerella lagenarium (inhibition of growth, photometric)
[10] = system: Monographella nivalis (Microdochium nivale); assay: Monographella nivalis (Microdochium nivale) / liquid culture (foot rot cereals); assay type: cell-based; conditions: PDB potato dextrose broth, 96-well plate, 24° C., 4-5 days after application, read-out: control of Monographella nivalis (inhibition of growth, photometric)
Experimental: Monographella nivalis (Microdochium nivale)/Liquid Culture (Foot Rot Cereals): Conidia of the fungus from cryogenic storage were directly mixed into nutrient broth (PDB potato dextrose broth). After placing a DMSO solution of test compound into a 96-well microtiter plate at an application rate of 200 ppm, the nutrient broth containing the fungal spores was added. The test plates were incubated at 24° C. and the inhibition of growth was determined photometrically 4-5 days after application. […].103

[11] = system: Puccinia recondita f. sp. tritici; assay: Puccinia recondita f. sp. tritici / wheat / leaf disc preventative (brown rust); assay type: in vivo; conditions: foliar, wheat cv Kanzler leaf segments, inoculated 1 day after application, assessed 7-9 days after application, read-out: control of Puccinia recondita f. sp. tritici (percent disease control compared to untreated)
Experimental: Puccinia recondita f. sp. tritici/Wheat/Leaf Disc Preventative (Brown Rust) Wheat leaf segments cultivated variety (cv) Kanzler were placed on agar in 24-well plates and sprayed with formulated test compound diluted in water at an application rate of 200 ppm. The leaf disks were inoculated with a spore suspension of the fungus 1 day after application. The inoculated leaf segments were incubated at 19° C. and 75% relative humidity under a light regime of 12/12 h (light/dark) in a climate cabinet and the activity of a compound was assessed as percent disease control compared to untreated when an appropriate level of disease damage appears in untreated check leaf segments (7-9 days after application). […].103

[12] = system: Gaeumannomyces graminis; assay: Gaeumannomyces graminis / liquid culture (take-all of cereals); assay type: cell-based; conditions: liquid culture of mycelial fragments, PDB potato dextrose broth, 96-well plate, 24° C., 4-5 days after application, read-out: control of Gaeumannomyces graminis (inhibition of growth, photometric)

CO/N=C(\C)c1cccc(CC(C)CO/N=C(\C)c2cccc(C)n2)n1 (stereo not drawn) [P.03]
≥ 80%: pest or weed control at 200 ppm [1] | pest or weed control at 200 ppm [2] | inhibition at 200 ppm [3] | pest or weed control at 200 ppm [4] | inhibition at 200 ppm [5] | pest or weed control at 200 ppm [6] | inhibition at 200 ppm [7] | inhibition at 200 ppm [8] | inhibition at 200 ppm [9] | inhibition at 200 ppm [10] | pest or weed control at 200 ppm [11]

CCC(CO/N=C(\C)c1cccc(C)n1)Cc1cccc(/C(C)=N/OC)n1 (stereo not drawn) [P.04]
≥ 80%: pest or weed control at 200 ppm [1] | pest or weed control at 200 ppm [2] | inhibition at 200 ppm [3] | pest or weed control at 200 ppm [4] | inhibition at 200 ppm [5] | pest or weed control at 200 ppm [6] | inhibition at 200 ppm [7] | inhibition at 200 ppm [8] | inhibition at 200 ppm [9] | inhibition at 200 ppm [12] | inhibition at 200 ppm [10] | pest or weed control at 200 ppm [11]

CO/N=C(\C)c1cccc(CCCO/N=C(\C)c2cc(C)cc(C)n2)n1 [P.10]
≥ 80%: pest or weed control at 200 ppm [1] | pest or weed control at 200 ppm [2] | inhibition at 200 ppm [3] | pest or weed control at 200 ppm [4] | inhibition at 200 ppm [5] | pest or weed control at 200 ppm [6] | inhibition at 200 ppm [7] | inhibition at 200 ppm [8] | inhibition at 200 ppm [9] | inhibition at 200 ppm [12] | inhibition at 200 ppm [10] | pest or weed control at 200 ppm [11]

CO/N=C(\C)c1cccc(CCCO/N=C(\C)c2cccc(C)n2)n1 [P.12]
≥ 80%: pest or weed control at 200 ppm [1] | pest or weed control at 200 ppm [2] | inhibition at 200 ppm [3] | pest or weed control at 200 ppm [4] | inhibition at 200 ppm [5] | pest or weed control at 200 ppm [6] | inhibition at 200 ppm [7] | inhibition at 200 ppm [8] | inhibition at 200 ppm [9] | inhibition at 200 ppm [12] | inhibition at 200 ppm [10] | pest or weed control at 200 ppm [11]

CCc1cccc(/C(C)=N/OCCCc2cccc(/C(C)=N/OC)n2)n1 [P.19]
≥ 80%: pest or weed control at 200 ppm [2] | inhibition at 200 ppm [3] | pest or weed control at 200 ppm [4] | inhibition at 200 ppm [5] | pest or weed control at 200 ppm [6] | inhibition at 200 ppm [7] | inhibition at 200 ppm [8]

CON=C(c1ccccc1)c1cccc(CCCO/N=C(\C)c2cccc(C)n2)n1 [P.24]
≥ 80%: pest or weed control at 200 ppm [1] | pest or weed control at 200 ppm [2] | inhibition at 200 ppm [3] | pest or weed control at 200 ppm [4] | inhibition at 200 ppm [5] | pest or weed control at 200 ppm [6] | inhibition at 200 ppm [7] | inhibition at 200 ppm [8] | inhibition at 200 ppm [9] | inhibition at 200 ppm [12] | inhibition at 200 ppm [10] | pest or weed control at 200 ppm [11]

CO/N=C(\C)c1cccc(CCCO/N=C(/c2ccccn2)c2ncc(C(F)(F)F)cc2Cl)n1 [P.51]
≥ 80%: pest or weed control at 200 ppm [2] | inhibition at 200 ppm [3] | inhibition at 200 ppm [5] | inhibition at 200 ppm [7] | inhibition at 200 ppm [8] | inhibition at 200 ppm [9] | inhibition at 200 ppm [12] | inhibition at 200 ppm [10]

CO/N=C(\C)c1cccc(CCCO/N=C2\CCCc3c2nc2ccccc2c3C)n1 [P.55]
≥ 80%: pest or weed control at 200 ppm [1] | pest or weed control at 200 ppm [2] | inhibition at 200 ppm [3] | pest or weed control at 200 ppm [4] | inhibition at 200 ppm [5] | pest or weed control at 200 ppm [6] | inhibition at 200 ppm [8] | inhibition at 200 ppm [9] | inhibition at 200 ppm [12] | inhibition at 200 ppm [10] | pest or weed control at 200 ppm [11]

CO/N=C(\C)c1cccc(CCCO/N=C2\CCCc3ccc(OC)nc32)n1 [P.56]
≥ 80%: pest or weed control at 200 ppm [1] | pest or weed control at 200 ppm [2] | inhibition at 200 ppm [3] | pest or weed control at 200 ppm [4] | inhibition at 200 ppm [5] | inhibition at 200 ppm [7] | inhibition at 200 ppm [8] | inhibition at 200 ppm [9] | inhibition at 200 ppm [12] | inhibition at 200 ppm [10]

CO/N=C(\C)c1cccc(CCCO/N=C2\CCCc3c2nc2cc(OC)ccc2c3C)n1 [P.69]
≥ 80%: pest or weed control at 200 ppm [1] | pest or weed control at 200 ppm [2] | inhibition at 200 ppm [3] | pest or weed control at 200 ppm [4] | inhibition at 200 ppm [5] | inhibition at 200 ppm [7] | inhibition at 200 ppm [8] | inhibition at 200 ppm [9] | inhibition at 200 ppm [12] | inhibition at 200 ppm [10] | pest or weed control at 200 ppm [11]

CO/N=C(\C)c1cccc(CCCO/N=C2\CCCc3c2nc2ccccc2c3Cl)n1 [P.95]
≥ 80%: pest or weed control at 200 ppm [2] | inhibition at 200 ppm [3] | inhibition at 200 ppm [5] | pest or weed control at 200 ppm [6] | inhibition at 200 ppm [7] | inhibition at 200 ppm [8] | inhibition at 200 ppm [9] | inhibition at 200 ppm [12] | inhibition at 200 ppm [10]

CO/N=C(\C)c1cc(OC)cc(CCCO/N=C(\C)c2cccc(C)n2)n1 [P.103]
≥ 80%: pest or weed control at 200 ppm [1] | pest or weed control at 200 ppm [2] | inhibition at 200 ppm [3] | pest or weed control at 200 ppm [4] | inhibition at 200 ppm [5] | pest or weed control at 200 ppm [6] | inhibition at 200 ppm [8] | inhibition at 200 ppm [9] | inhibition at 200 ppm [12] | inhibition at 200 ppm [10] | pest or weed control at 200 ppm [11]
